Our source for the IC50 and EC50 values is patent US20260364080A1, “PYRAZOLO-PYRIMIDINONE COMPOUNDS FOR USE IN METHODS OF INHIBITING WEE1 A KINASE” (Acrivon Therapeutics, Inc., priority 2023, published 2026).

The target of assay [1] is T1, Myt1 kinase (recombinant PMYT-1) (Homo sapiens, UniProt Q99640).
T1 construct: full length PMYT-1 was expressed by baculovirus in insect cells; purchased Invitrogen A30984; host or cells: insect cells (baculovirus)
T1 sequence (Q99640 1-499): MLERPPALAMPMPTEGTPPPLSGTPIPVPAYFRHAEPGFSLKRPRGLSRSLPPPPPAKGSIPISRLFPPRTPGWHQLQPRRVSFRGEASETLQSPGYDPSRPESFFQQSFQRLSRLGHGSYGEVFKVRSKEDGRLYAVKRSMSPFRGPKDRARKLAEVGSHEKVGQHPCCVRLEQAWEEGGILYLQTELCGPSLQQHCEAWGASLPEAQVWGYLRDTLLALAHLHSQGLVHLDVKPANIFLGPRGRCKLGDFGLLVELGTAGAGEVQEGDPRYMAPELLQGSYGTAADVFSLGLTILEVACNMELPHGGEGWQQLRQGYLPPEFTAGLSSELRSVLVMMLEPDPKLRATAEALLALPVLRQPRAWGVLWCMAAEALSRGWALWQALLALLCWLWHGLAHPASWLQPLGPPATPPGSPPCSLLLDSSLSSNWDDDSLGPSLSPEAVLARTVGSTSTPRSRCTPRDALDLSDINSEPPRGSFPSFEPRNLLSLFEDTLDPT
Kind of assay: Myt1 kinase binding assay (LanthaScreen Eu Kinase Binding Assay). As to conditions: 3 nM tracer 178, 2.5 nM PMYT-1, 1 nM Eu-labeled antibody; read-out: Myt1 kinase Binding IC50. The method, boiled down:
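The binding affinity of compounds for Myt1 kinase was measured with a LanthaScreen Europium (Eu) Kinase Binding Assay, a time-resolved FRET format in which test compounds compete against a labeled kinase tracer, and the results were expressed as IC50 values describing compound binding to Myt1.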
(Time-resolved FRET reads energy transfer from a long-lived donor to a nearby acceptor.)

Assay [2] has as its target T2, recombinant human Wee1A kinase (Homo sapiens, UniProt P30291).
T2 construct: full length Wee1 kinase was expressed by baculovirus in insect cells; purchased Invitrogen PV3817; host or cells: insect cells (baculovirus)
The assay can be described thus: Wee1A kinase binding assay (LanthaScreen Eu time-resolved FRET). As to conditions: 30 nM tracer 178, 5 nM Wee1A kinase, 2 nM Eu-labeled antibody; 60 minutes at room temperature; read-out: Wee1A kinase Binding IC50. A digest of the protocol:
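Full-length, baculovirus-expressed GST-tagged Wee1A (5 nM) was mixed with 2 nM Eu-anti-GST antibody, 30 nM kinase tracer 178 and compound (1% DMSO). Buffer was 50 mM HEPES pH 7.5, 10 mM MgCl2, 1 mM EGTA, 0.01% Brij-35, incubated 60 min at room temperature. TR-FRET 665/615 nm emission ratios from duplicates were curve-fitted.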

The test system of the next assay is DAOY cells. The assay can be described thus: Cell Titer Glo viability assay, DAOY cells. As to conditions: Homo sapiens, 144 h, absolute EC50. Type of assay: cell-based. As to the method:
(§1) Each of an ACHN renal cell carcinoma cell line (ATCC) and a DAOY medulloblastoma cell line, and an A427 lung cancer line were cultured in Minimum Essential Medium Eagle supplemented with 10% fetal calf serum (Sigma), 1% Penicillin-Streptomycin and 10 mM HEPES buffer (HyClone). Cell cultures were kept in a humidified incubator at 37 °C and 5% CO2. Cells were routinely tested for Mycoplasma contamination.
(§2) ACHN cells, DAOY cells, or A427 cells were seeded at a density of 400, 250, or 500 cells per well respectively, in tissue culture treated 384 well plates (Corning Costar). After overnight incubation, cells were treated with drugs at concentrations ranging from 17 to 10 000 nM. Viability compared to untreated control was assessed at 144 h using Cell Titer Glo assay 2.0 (Promega). […] “NT” means the compounds was not tested in the indicated cells.
In general terms: Cellular ATP, detected with luciferase, serves as a proxy for viable cell number.

The target in assay [3] is T3, Myt1 kinase (CDK1 Thr14 phosphorylation in ACHN renal cell carcinoma cells) (Homo sapiens, UniProt Q99640).
T3 construct: pCDK1 Thr14 AlphaLISA read-out
T3 sequence (Q99640 1-499): T1 sequence (Q99640 1-499)
Kind of assay: AlphaLISA assay, Myt1 kinase target engagement (phospho-CDK1 Thr14) in ACHN cells. The class given is cell-based. As to conditions: ACHN cells (marked *); 4 h treatment. The method, boiled down: (§3)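 Cells seeded at 10,000 (DAOY) or 20,000 (ACHN) per well, treated 24 h later for 4 h with compound at 7–5000 nM. Lysates analysed by AlphaLISA SureFire Ultra phospho-CDK1 (Thr14) with donor/acceptor beads; EC50 from dose-response curves.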
For orientation: Bead proximity is the source of the signal in Alpha formats.

Assay [4] deals with T4, Wee1A kinase (CDK1 Tyr15 phosphorylation in ACHN renal cell carcinoma cells) (Homo sapiens, UniProt P30291).
T4 construct: pCDK1 Tyr15 immunofluorescence read-out
Kind of assay: High-content imaging of pCdk1 Y15, Wee1A kinase target engagement in ACHN cells. The class given is cell-based. As to conditions: 4 h treatment, nuclear positivity for pCdk1 Y15 vs DMSO control, read-out: CDK1 Tyr15 Phosphorylation EC50. A digest of the protocol: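 ACHN cells exposed to compound for 4 h over 7–5,000 nM or 0.3–200 nM, then fixed and immunostained for pCDK1 Y15 with DAPI nuclear counterstain. The percentage of pCdk1 Y15 nucleus-positive cells relative to DMSO control was imaged per well; EC50 from dose-response curves.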

For a further assay, the system named is ACHN cells. The assay can be described thus: Cell Titer Glo viability assay, ACHN cells. The class given is cell-based. The following applies: Homo sapiens, 144 h, absolute EC50. A digest of the protocol:
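Cells grown in MEM with 10% FCS were seeded at 500 (A427), 400 (ACHN) or 250 (DAOY) per well and treated the next day with compound at 17 to 10 000 nM. Viability relative to untreated control was read at 144 h by CellTiter-Glo 2.0.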

Assay [5] deals with T5, Myt1 kinase (CDK1 Thr14 phosphorylation in DAOY medulloblastoma cells) (Homo sapiens, UniProt Q99640).
T5 construct: pCDK1 Thr14 AlphaLISA read-out
T5 sequence (Q99640 1-499): T1 sequence (Q99640 1-499)
The assay can be described thus: AlphaLISA assay, Myt1 kinase target engagement (phospho-CDK1 Thr14) in DAOY cells. The following applies: 4 h treatment, read-out: CDK1 Thr14 Phosphorylation EC50. Type of assay: cell-based. The method, boiled down: as §3

The test system of a further assay is A427 cells. Kind of assay: Cell Titer Glo viability assay, A427 cells. Type of assay: cell-based. As to conditions: Homo sapiens, A-427, 144 h, absolute EC50. The method, then: as §1, §2

T4 sequence (P30291 whole entry): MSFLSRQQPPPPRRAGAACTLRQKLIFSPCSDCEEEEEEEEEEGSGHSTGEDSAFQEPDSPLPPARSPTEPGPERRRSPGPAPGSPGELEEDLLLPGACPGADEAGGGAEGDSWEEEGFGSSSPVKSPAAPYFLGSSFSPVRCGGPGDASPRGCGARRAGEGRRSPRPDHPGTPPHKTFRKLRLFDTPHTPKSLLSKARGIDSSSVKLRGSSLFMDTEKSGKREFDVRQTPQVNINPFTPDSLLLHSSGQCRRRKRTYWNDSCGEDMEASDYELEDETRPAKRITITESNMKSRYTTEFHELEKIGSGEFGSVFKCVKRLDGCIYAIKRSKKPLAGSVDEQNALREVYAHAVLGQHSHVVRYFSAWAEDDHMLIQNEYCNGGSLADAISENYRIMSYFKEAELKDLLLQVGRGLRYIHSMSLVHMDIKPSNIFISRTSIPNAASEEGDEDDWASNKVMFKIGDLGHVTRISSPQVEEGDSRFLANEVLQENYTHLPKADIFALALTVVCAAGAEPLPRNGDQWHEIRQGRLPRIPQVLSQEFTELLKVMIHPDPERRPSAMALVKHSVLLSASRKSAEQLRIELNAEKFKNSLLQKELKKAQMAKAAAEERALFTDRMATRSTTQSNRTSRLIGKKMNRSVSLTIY
T2 sequence (P30291 whole entry): as above

Usually IC50 stands for the concentration that inhibits the measured activity by half. One may read the EC50 as the concentration at which the effect is half-maximal. Regarding `C=CCn1c(=O)c2cnc(Nc3ccc4c(ccn4C)c3)nc2n1-c1cccc(OC2CCN(C)CC2)n1` [Compound 186, 2-allyl-6-((1-methyl-1H-indol-5-yl)amino)-1-(6-((1-methylpiperidin-4-yl)oxy)pyridin-2-yl)-1,2-dihydro-3H-pyrazolo[3,4-d]pyrimidin-3-one], the IC50 is 20 to 100 nM in assay [1] and under 10 nM in assay [2]. Moreover, the EC50 in the assay with DAOY cells is at most 100 nM; in assay [3], 200 to 500 nM; in assay [4], under 100 nM; with ACHN cells, at most 100 nM.
As for `C=CCn1c(=O)c2cnc(Nc3ccc4scnc4c3)nc2n1-c1cccc(OC2CCN(C)CC2)n1` [Compound 209, 2-allyl-6-(benzo[d]thiazol-5-ylamino)-1-(6-((1-methylpiperidin-4-yl)oxy)pyridin-2-yl)-1,2-dihydro-3H-pyrazolo[3,4-d]pyrimidin-3-one], the 50% inhibitory concentration (IC50) is under 20 nM in assay [1] and under 10 nM in assay [2]. Moreover, the EC50 is at most 100 nM with DAOY cells, under 100 nM in assay [4], at most 100 nM in the assay with ACHN cells and under 200 nM in assay [5].
On to `C=CCn1c(=O)c2cnc(Nc3cc(C)cc(F)c3)nc2n1-c1cccc(NC2CCN(C)CC2)n1` [Compound 161, 2-allyl-6-(3-fluoro-5-toluidino)-1-[6-(1-methyl-4-piperidylamino)-2-pyridyl]-1,2-dihydro-3H-1,2,5,7-tetraazainden-3-one], for which the IC50 in assay [1] is 100 to 500 nM; in assay [2], under 10 nM. The results for the EC50 (in assay [4]; in the assay with A427 cells; in the assay on ACHN cells) were under 100 nM, 100 to 500 nM and at most 100 nM, respectively.
As to `C=CCn1c(=O)c2cnc(Nc3ccc4oc(C)nc4c3)nc2n1-c1cccc(OC2CCN(C)CC2)n1` [Compound 231, 2-allyl-6-(2-methyl-1,3-benzoxazol-5-ylamino)-1-[6-(1-methyl-4-piperidyloxy)-2-pyridyl]-1,2-dihydro-3H-1,2,5,7-tetraazainden-3-one], the IC50 is under 20 nM in assay [1] and under 10 nM in assay [2]. Moreover, the EC50 in the assay on DAOY cells is at most 100 nM; in assay [4], under 100 nM; with ACHN cells, at most 100 nM; in assay [5] it was 200 to 500 nM.
For the compound `C=CCn1c(=O)c2cnc(Nc3ccc4c(c3)OCO4)nc2n1-c1cccc(OC2CCN(C)CC2)n1` [Compound 307, 2-allyl-6-(2H-1,3-benzodioxol-5-ylamino)-1-[6-(1-methyl-4-piperidyloxy)-2-pyridyl]-1,2-dihydro-3H-1,2,5,7-tetraazainden-3-one], the IC50 was 20 to 100 nM in assay [1] and under 10 nM in assay [2]. The EC50 was at most 100 nM in the assay on DAOY cells, under 100 nM in assay [4], at most 100 nM in the assay with ACHN cells and 200 to 500 nM in assay [5].
Consider `C=CCn1c(=O)c2cnc(Nc3ccc4c(cnn4C)c3)nc2n1-c1cccc(OC2CCNCC2)n1` [Compound 106, 2-allyl-6-(1-methyl-1H-indazol-5-ylamino)-1-[6-(4-piperidyloxy)-2-pyridyl]-1,2-dihydro-3H-1,2,5,7-tetraazainden-3-one], for which the half-inhibitory concentration (IC50) in assay [1] is 20 to 100 nM; in assay [2] it was under 10 nM. The EC50 is 100 to 500 nM in the assay with DAOY cells, under 100 nM in assay [4], at most 100 nM in the assay on ACHN cells and 200 to 500 nM in assay [5].
For the compound `C=CCn1c(=O)c2cnc(Nc3ccc4occc4c3)nc2n1-c1cccc(OC2CCN(C)CC2)n1` [Compound 309, 2-allyl-6-(1-benzofuran-5-ylamino)-1-[6-(1-methyl-4-piperidyloxy)-2-pyridyl]-1,2-dihydro-3H-1,2,5,7-tetraazainden-3-one], the IC50 in assay [1] was under 20 nM; in assay [2] it was under 10 nM. Also, the EC50 with DAOY cells was at most 100 nM; in assay [4], under 100 nM; with ACHN cells, at most 100 nM; in assay [5] it was under 200 nM.
As to `C=CCn1c(=O)c2cnc(Nc3ccc4c(cnn4C(C)C)c3)nc2n1-c1cccc(OC2CCN(C)CC2)n1` [Compound 248, 2-allyl-6-(1-isopropyl-1H-indazol-5-ylamino)-1-[6-(1-methyl-4-piperidyloxy)-2-pyridyl]-1,2-dihydro-3H-1,2,5,7-tetraazainden-3-one], the 50% inhibitory concentration (IC50) was under 20 nM in assay [1] and under 10 nM in assay [2]. Further, the EC50 with DAOY cells was at most 100 nM; in assay [4], under 100 nM; in the assay on ACHN cells, at most 100 nM; in assay [5], under 200 nM.
With `C=CCn1c(=O)c2cnc(Nc3ccc4ncsc4c3)nc2n1-c1cccc(OC2CCN(C)CC2)n1` [Compound 303, 2-allyl-6-(1,3-benzothiazol-6-ylamino)-1-[6-(1-methyl-4-piperidyloxy)-2-pyridyl]-1,2-dihydro-3H-1,2,5,7-tetraazainden-3-one], the values for the half-maximal inhibitory concentration (IC50) in assay [1] and in assay [2] were under 20 nM and under 10 nM, respectively. The EC50 in the assay on DAOY cells was 100 to 500 nM; in assay [4], under 100 nM; in the assay with ACHN cells, at most 100 nM; in assay [5], 200 to 500 nM.
In the case of `C=CCn1c(=O)c2cnc(Nc3ccc4sncc4c3)nc2n1-c1cccc(OC2CCN(C)CC2)n1` [Compound 320, 2-allyl-6-(1,2-benzisothiazol-5-ylamino)-1-[6-(1-methyl-4-piperidyloxy)-2-pyridyl]-1,2-dihydro-3H-1,2,5,7-tetraazainden-3-one], the IC50 in assay [1] was under 20 nM; in assay [2], under 10 nM. Besides, the 50% effective concentration (EC50) was at most 100 nM with DAOY cells, under 100 nM in assay [4], at most 100 nM in the assay with ACHN cells and 200 to 500 nM in assay [5].
`C=CCn1c(=O)c2cnc(Nc3ccc4c(ccn4C)c3)nc2n1-c1cccc(OC2CCNCC2)n1` [Compound 236, 2-allyl-6-((1-methyl-1H-indol-5-yl)amino)-1-(6-(piperidin-4-yloxy)pyridin-2-yl)-1,2-dihydro-3H-pyrazolo[3,4-d]pyrimidin-3-one]: the half-maximal inhibitory concentration (IC50) in assay [1] was 20 to 100 nM; in assay [2], under 10 nM. In addition, the EC50 with DAOY cells was at most 100 nM; in assay [4], under 100 nM; in the assay on ACHN cells, at most 100 nM; in assay [5], 200 to 500 nM.
With `CN1CCC(Oc2cccc(-n3c4nc(Nc5ccc6c(cnn6C)c5)ncc4c(=O)n3C)n2)CC1` [Compound 121, 2-methyl-6-(1-methyl-1H-indazol-5-ylamino)-1-[6-(1-methyl-4-piperidyloxy)-2-pyridyl]-1,2-dihydro-3H-1,2,5,7-tetraazainden-3-one], the figures for the IC50 in assay [1] and in assay [2] were 20 to 100 nM and under 10 nM, respectively. Further, the half-maximal effective concentration (EC50) with DAOY cells is at most 100 nM; in assay [4], under 100 nM; with ACHN cells it was at most 100 nM; in assay [5], 200 to 500 nM.
